Patent US5686448A (priority 1995, dated 1997)

Tests used:
[1] = system: Flow 1000 cells (foreskin cells); settings: 25 mg/ml, 48 hours
Protocol: (§1) Healthy confluent monolayer cell cultures were overlaid with 1 ml of the drug and incubated for 48 hours at 37° C. and then stained. Cell cultures with maintenance media were used as controls.

Vero cells = settings: 25 mg/ml, 48 hours
Protocol: To determine the toxicity level of the drug, all three cell lines--RK-13, Vero cells, and WISH cells--were used. In the toxicity experiments, the effect of the drug on the uninfected cell for a range of periods of time was determined. Accordingly, cultures were incubated with and without the drug. The time of exposure was from one to seven hours. A comparison was then made between the drug tested cultures and the control cultures. After each period of incubation, the cells were washed and fresh media was added to the cells. The cell viability was then determined by dividing these cultures and having them grow into new cell cultures.
At the end of the incubation period, the cultures were washed twice with sterile PBS (Dulbecco). Fresh medium was added to each of the cultures. The cultures were then incubated for an additional 24 hours.
as §1

RK-13 cells = settings: 25 mg/ml, 48 hours
HSV-2 (333 strain) = assay: HMB plaque inhibition in infected Vero cells (Exp. 1M-1P); format: cell-based
Protocol: In this experiment, 25 mg/ml HMB was tested on Vero cells infected with HSV-2. The virus control cultures, without HMB, had 705 plaque.
The number of plaque on the virus control was about 10 to 12 plaque.
In this experiment, 25 mg/ml, 20 mg/ml, and 15 mg/ml of HMB concentrations were tested on Vero cells infected with HSV-2. […] The experimental flasks had as many, or more, plaque as the control, with an average of 154 plaque for the control and 169 plaque for the HMB-treated flasks.

With C[N+](C)(C)CCCCCC[N+](C)(C)C [HMB, hexamethonium bromide] the toxicity [1] was “no toxicity”, the toxicity (Vero cells) was “no toxicity” and the toxicity (RK-13 cells) was “slight toxicity”. For the same molecule, the cell layer appearance (HSV-2 (333 strain); Exp. 1M, 25 mg/ml) was “thin cell layer”, the plaque inhibition (HSV-2 (333 strain); Exp. 1N, 20 mg/ml, control about 10 to 12) was “complete inhibition of plaque” and the effect on plaque (HSV-2 (333 strain); Exp. 1O, 15 mg/ml) was “did not have any effect”. The average plaque number (HSV-2 (333 strain); Exp. 1O, 15 mg/ml, control 154) was 169 plaque, the plaque formation (HSV-2 (333 strain); Exp. 1O, 20 mg/ml) was “no plaque” and the toxicity to monolayer (HSV-2 (333 strain); Exp. 1O, 25 mg/ml) was “toxic to the monolayer”. For the same molecule, the plaque formation (HSV-2 (333 strain); Exp. 1O, 25 mg/ml, most likely due to toxicity) was “no plaque” and the “inhibition of in vitro replication” value (HSV-2 (333 strain); HMB, Example No. 1 summary) was “inhibit the in vitro replication of HSV-1 and HSV-2”.
